Assay results reported in publication PMC7259601 (PLoS ONE, 2020).

Experiments:
SAMP8 mice = experiment: Resident Intruder (RI) test, SAMP8; type: in vivo, mouse; settings: 0.32 or 0.96 mg/kg/day for 5 weeks, male
Description: Both male and female mice from the senescence accelerated strain SAMP8 and its control SAMR1 of different ages (see Table S3 for details) were used in these studies. Mice were breed in the animal facilities of the Pharmacy Faculty (University of Barcelona), maintained in a at 22 ± 2 °C controlled temperature in a 12 hr light / dark cycle (lights on at 8:00 am; 300 lux/0 lux) with ad libitum access to food (2018 TEKLAD, Harlan) and water. Male mice were housed individually (males) or in groups of 4-5 animals (females) in plastic colony boxes with a sawdust bedding material. […] SAMR1 mice treated with vehicle were included as a control. All drugs were administered via drinking water and diluted in vehicle. Drug concentration was calculated weekly in function of body weight and corrected in function of drinking water consumption. Cognitive function was evaluated by NORT, social behavior was evaluated by RI and anxiety and motor function were evaluated by EPM and OF. When necessary, animals were deeply anesthetized (80 mg/kg sodium pentobarbital) and brain samples (hippocampus, (prefrontal) cortex) were micro-dissected and processed according to the downstream analysis.
The protocol was modified from previously described. Briefly, the test subject (resident) was maintained in its home cage without bedding changes for one week. […] In mice the session was video-recorded for 20 min and social interaction (social interaction and rearings) and aggressive behavior (lateral threats, clinch attacks, keep-down behavior) were analyzed. […] In rats the session was video recorded for 15 min and social interaction (active and passive social interaction, number of evitations and time without social interaction) were analyzed. […] In addition, the time spent without social interaction was also measured.
Resident Intruder (RI): Mice were video-recorded for 20 min and social interaction and aggressive behavior were analyzed. Rats were video recorded for 15 min and social interaction (active and passive social interaction, number of evitations and time without social interaction) were analyzed.

platelet (PLT) levels = experiment: Rat pharmacodynamics: hematology, 5 day treatment and recovery
Excerpt: KDM1A is involved in hematopoiesis, and it is well known that KDM1A knockdown or KDM1A inhibitors can halt hematopoiesis when administered at sufficiently high doses and during sufficient time^(39). […] Data from N = 6 rats are represented as mean ± SEM.
Male Wistar rats (N = 3 or 6 per dose level) of 10-12 weeks of age were maintained in air and temperature controlled cages with regular supply of water and food. A maximum of […] were raised. Before first administration, the animals were marked on the tail for identification. […] Animal of each treatment group were sampled for blood on days 1, 3, 5, 8, 10, 12, 15, 17 and 19. Blood samples of days 1, 3 and 5 were obtained just one hr after the compound administration. Blood samples were obtained from leg saphenous vein using recipients treated with EDTA to avoid coagulation. The last day of the study, rats were euthanized under CO2 saturated atmosphere and blood was extracted by cardiac puncture and collected in recipients containing EDTA.
Blood samples obtained from leg saphenous vein or cardiac puncture were analyzed on a Diatron hematology analyzer at SEA (Plataforma Recerca Aplicada Animal de Laboratori, Parc Científic de Barcelona).
Hematology parameters were calculated as mean ± SEM and represented as a timecourse.

Human recombinant MAO-A = target: T1, Human recombinant MAO-A (Homo sapiens, UniProt P21397); experiment: MAO-A kynuramine fluorescent assay; type: biochemical; settings: S1 Table A
T1 construct: purchased Sigma Aldrich M7316
Description: Human recombinant monoamine oxidase proteins MAO-A and MAO-B (Sigma Aldrich, M7316 and M7441) were used to monitor the MAO enzymatic activities in a fluorescent assay using kynuramine as a substrate. […] Enzymatic reaction was initiated by the addition of specific KM Kynuramine and incubated 1 hr at 37 °C. The oxidative deamination of the substrate was stopped by adding NaOH 2N (v/v). The conversion of kynuramine to 4-hydroxyquinoline by MAOs was monitored by fluorescence (λex = 320 nm, λem = 360 nm) using a microplate reader.

[1] = system: isolated Sprague-Dawley rats; experiment: Elevated Plus Maze, rat isolation rearing model; type: in vivo; settings: 0.16 or 0.48 mg/kg/day in drinking water, approximately 1 month
Description: Sprague Dawley Rats: Right after the weaning (post natal day 21-23), 72 Sprague-Dawley male rats (Charles River, bred in the UAB Animal facility) were divided in two groups: Control (N = 18), maintained 3-4 animals per cage; Isolated (N = 54), 1 animal per cage ([…] 1291H Eurostandard type III with ECOPURE CHIPS 6 bedding material, Harlan). Animals were maintained at 21 ± 2 °C controlled temperature in a 12 hr light / dark cycle (lights on at 8:00 am) with ad libitum access to food (2014 TEKLAD, Harlan) and water. […] Control animals were treated with vehicle. The administration route was drinking water and the vehicle 1.8% 2-Hydroxypropyl-b-cyclodextrin. Drug concentration was adjusted weekly by body weight and water consumption. During the last week of treatment, all animals were tested in the EPM and, on a different day, in the RI test (N = 12 / group). […]
The EPM consisted of four arms at right angles to each other connected to a central square and maintained elevated 50 cm above the floor. […] The animal was placed facing a closed arm, and its movements were video-recorded for 5 min and analyzed by video-tracking using SMART® (v3.0, PanLab, SLU, Spain).
Elevated Plus Maze (EPM): Movements were video-recorded for 5 min and analyzed by video-tracking using SMART® (v3.0, PanLab, SLU, Spain).

T1 sequence (P21397 whole entry): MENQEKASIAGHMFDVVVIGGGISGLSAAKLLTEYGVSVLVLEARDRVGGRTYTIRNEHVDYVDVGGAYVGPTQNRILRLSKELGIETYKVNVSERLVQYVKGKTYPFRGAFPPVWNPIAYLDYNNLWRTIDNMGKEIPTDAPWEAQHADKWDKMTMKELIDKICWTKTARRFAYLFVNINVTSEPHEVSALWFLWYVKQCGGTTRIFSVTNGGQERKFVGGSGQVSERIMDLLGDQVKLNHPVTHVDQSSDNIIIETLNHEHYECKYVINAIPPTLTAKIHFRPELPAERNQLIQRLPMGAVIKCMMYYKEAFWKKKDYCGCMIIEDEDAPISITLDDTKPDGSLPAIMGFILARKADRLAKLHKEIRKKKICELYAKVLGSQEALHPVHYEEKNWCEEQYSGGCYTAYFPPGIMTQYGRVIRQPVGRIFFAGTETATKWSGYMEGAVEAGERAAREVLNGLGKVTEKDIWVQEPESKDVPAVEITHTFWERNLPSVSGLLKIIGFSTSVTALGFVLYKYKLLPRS

Nc1nnc(CN[C@@H]2C[C@H]2c2ccc(OCc3ccccc3)cc2)o1 [ORY-2001, vafidemstat]
latency to attack (SAMP8 mice): tendency to increase the latency to attack | number of attacks and clinch attacks (SAMP8 mice): lowered to SAMR1 levels | time in social interactions and number of rearings (SAMP8 mice): No significant strain- or treatment-differences | dose limiting toxicity in 5 day MTD studies (platelet (PLT) levels; hematopoietic impact): reversible and dose dependent impact on platelets | maximum PLT rebound (platelet (PLT) levels; rats, 5 day treatment, 14 day recuperation): ~12 days | EC50 of PLT reduction (platelet (PLT) levels; rats, p.o. gavage, 5 day treatment): ~ 0.5 mg/kg | IC50 (Human recombinant MAO-A): 5.47 ± 0.3 µM | anxiety and locomotor activity in the EPM [1]: did not produce any significant effect on anxiety or locomotor activity
